Measured values published in US9776995B2, “Bicyclic sulfonamide compounds as sodium channel inhibitors” (AMGEN INC., priority 2013, dated 2017).
pIC50: −log10 of the molar value. Where two headings read alike, the source gives them in different places.

Molecular target: Nav 1.7 (Homo sapiens (Human), UniProt Q15858)
Assay: in-vitro Nav 1.7 PX data
Format: cell-based

Nav 1.7, sequence (Q15858 whole entry): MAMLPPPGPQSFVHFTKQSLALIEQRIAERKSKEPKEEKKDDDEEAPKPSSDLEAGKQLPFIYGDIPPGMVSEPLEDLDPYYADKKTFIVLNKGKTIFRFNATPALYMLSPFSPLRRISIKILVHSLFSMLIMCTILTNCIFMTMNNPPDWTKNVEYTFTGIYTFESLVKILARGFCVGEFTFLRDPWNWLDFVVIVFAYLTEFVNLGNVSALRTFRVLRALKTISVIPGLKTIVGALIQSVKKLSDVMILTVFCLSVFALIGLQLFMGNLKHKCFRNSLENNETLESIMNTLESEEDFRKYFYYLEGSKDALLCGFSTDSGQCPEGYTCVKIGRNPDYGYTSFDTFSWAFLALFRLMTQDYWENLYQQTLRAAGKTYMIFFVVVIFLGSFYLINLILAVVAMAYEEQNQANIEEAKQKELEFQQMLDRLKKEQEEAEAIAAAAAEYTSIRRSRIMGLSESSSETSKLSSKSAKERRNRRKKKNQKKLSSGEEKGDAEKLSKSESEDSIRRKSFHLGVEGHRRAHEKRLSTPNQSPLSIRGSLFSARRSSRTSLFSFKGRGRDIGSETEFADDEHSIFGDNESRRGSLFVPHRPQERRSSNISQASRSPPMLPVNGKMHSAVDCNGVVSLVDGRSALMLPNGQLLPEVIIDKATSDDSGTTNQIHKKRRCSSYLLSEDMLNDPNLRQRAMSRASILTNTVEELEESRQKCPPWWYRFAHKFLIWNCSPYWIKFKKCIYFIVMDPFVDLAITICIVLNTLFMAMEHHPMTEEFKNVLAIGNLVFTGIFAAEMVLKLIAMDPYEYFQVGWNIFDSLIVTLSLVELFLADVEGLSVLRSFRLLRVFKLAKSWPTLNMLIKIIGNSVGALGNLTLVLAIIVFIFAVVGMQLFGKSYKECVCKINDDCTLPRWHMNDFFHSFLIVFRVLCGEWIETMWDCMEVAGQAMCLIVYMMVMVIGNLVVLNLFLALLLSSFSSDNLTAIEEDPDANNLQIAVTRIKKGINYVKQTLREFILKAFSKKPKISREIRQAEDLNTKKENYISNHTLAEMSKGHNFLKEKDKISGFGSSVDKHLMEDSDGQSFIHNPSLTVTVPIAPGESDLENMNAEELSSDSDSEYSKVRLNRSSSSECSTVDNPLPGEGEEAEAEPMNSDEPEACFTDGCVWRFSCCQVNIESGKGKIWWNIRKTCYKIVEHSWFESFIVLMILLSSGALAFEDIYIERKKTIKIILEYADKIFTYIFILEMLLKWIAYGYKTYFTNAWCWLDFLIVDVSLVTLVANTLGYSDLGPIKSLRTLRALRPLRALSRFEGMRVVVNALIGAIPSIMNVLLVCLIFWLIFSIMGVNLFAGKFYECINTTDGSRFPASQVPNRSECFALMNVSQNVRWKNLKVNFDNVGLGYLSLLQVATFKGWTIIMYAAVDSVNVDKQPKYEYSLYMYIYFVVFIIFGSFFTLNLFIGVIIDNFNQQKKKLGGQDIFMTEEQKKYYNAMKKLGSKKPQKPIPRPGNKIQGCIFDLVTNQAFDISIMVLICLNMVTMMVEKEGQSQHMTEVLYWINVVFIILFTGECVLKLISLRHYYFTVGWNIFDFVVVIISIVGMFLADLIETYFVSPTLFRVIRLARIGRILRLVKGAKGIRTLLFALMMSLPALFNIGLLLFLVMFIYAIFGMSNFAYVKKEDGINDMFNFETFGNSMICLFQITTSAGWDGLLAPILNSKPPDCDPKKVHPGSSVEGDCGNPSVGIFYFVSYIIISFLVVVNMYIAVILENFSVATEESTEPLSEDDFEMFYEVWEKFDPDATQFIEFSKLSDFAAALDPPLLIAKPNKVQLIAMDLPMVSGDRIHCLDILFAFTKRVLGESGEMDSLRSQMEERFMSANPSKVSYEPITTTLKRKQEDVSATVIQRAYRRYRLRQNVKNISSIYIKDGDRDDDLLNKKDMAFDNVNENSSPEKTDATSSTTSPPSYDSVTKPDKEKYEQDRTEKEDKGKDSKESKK

`COc1cc(Oc2ccc(F)cn2)ccc1-c1nccc2cc(S(=O)(=O)Nc3ccon3)ccc12` [Example 195, 1-(4-((5-fluoro-2-pyridinyl)oxy)-2-methoxyphenyl)-N-3-isoxazolyl-6-isoquinolinesulfonamide] was tested, and the pIC50 (in-vitro PX (PatchXpress) data) was 5.79.
In the case of `O=S(=O)(Nc1nncs1)c1ccc2c(-c3ccc(C(F)(F)F)cc3C3CC3)ncnc2c1` [Example 192, 4-(2-cyclopropyl-4-(trifluoromethyl)phenyl)-N-1,3,4-thiadiazol-2-yl-7-quinazolinesulfonamide], the pIC50 (in-vitro PX (PatchXpress) data) was 5.31.
Molecule `COc1cc(C(F)F)c(Cl)cc1-c1nccc2cc(S(=O)(=O)Nc3ccon3)ccc12` [Example 169, 1-(5-chloro-4-(difluoromethyl)-2-methoxyphenyl)-N-3-isoxazolyl-6-isoquinolinesulfonamide] has a pIC50 (in-vitro Nav 1.7 PX data) of 6.98.
Molecule `COc1cc(-c2cc(F)cc(F)c2)c(Cl)cc1-c1ncnc2cc(S(=O)(=O)Nc3ccon3)ccc12` [Example 206, 4-(2-chloro-3′,5′-difluoro-5-methoxy-4-biphenylyl)-N-3-isoxazolyl-7-quinazolinesulfonamide] has a pIC50 (in-vitro PX) of 7.84.
Work on `COc1cc(-c2cccc(F)c2)c(Cl)cc1-c1ncnc2cc(S(=O)(=O)Nc3cccnn3)ccc12` [Example 15, 4-(2-CHLORO-3′-FLUORO-5-METHOXY-[1,1′-BIPHENYL]-4-YL)-N-(PYRIDAZIN-3-YL)QUINAZOLINE-7-SULFONAMIDE] yielded a pIC50 (in-vitro PX (PatchXpress) data) of 6.96.
Molecule `COc1cc(-c2nccc3cc(S(=O)(=O)Nc4ccon4)ccc23)c(C)cc1-c1cccc(F)c1` [Example 167, 1-(3′-fluoro-2-methoxy-5-methyl-4-biphenylyl)-N-3-isoxazolyl-6-isoquinolinesulfonamide] has a pIC50 (in-vitro Nav 1.7 PX data) of 5.57.
`COc1nsc(NS(=O)(=O)c2ccc3c(-c4ccc(-c5cc(F)cc(F)c5)cc4OC)nccc3c2)n1` [Example 134, 1-(3′,5′-difluoro-3-methoxy-4-biphenylyl)-N-(3-methoxy-1,2,4-thiadiazol-5-yl)-6-isoquinolinesulfonamide] showed a pIC50 (in-vitro PX data) of 5.89.
Work on `COc1cc(-c2cccc(F)c2)c(Cl)cc1-c1ncnc2cc(S(=O)(=O)Nc3cnsn3)ccc12` [Example 207, 4-(2-chloro-3′-fluoro-5-methoxy-4-biphenylyl)-N-1,2,5-thiadiazol-3-yl-7-quinazolinesulfonamide] yielded a pIC50 (in-vitro PX) of 7.29.
With `COc1cc(-c2cc(F)cc(F)c2)ccc1-c1nccc2cc(S(=O)(=O)Nc3ccccn3)ccc12` [Example 141, 1-(3′,5′-difluoro-3-methoxy-4-biphenylyl)-N-2-pyridinyl-6-isoquinolinesulfonamide] the pIC50 (in-vitro Nav 1.7 PX data) was 6.00.
In the case of `COc1cc(-c2cccc(F)n2)c(F)cc1-c1nccc2cc(S(=O)(=O)Nc3nncs3)ccc12` [Example 212, 1-(5-fluoro-4-(6-fluoro-2-pyridinyl)-2-methoxyphenyl)-N-1,3,4-thiadiazol-2-yl-6-isoquinolinesulfonamide], the pIC50 (in-vitro PX) was 5.86.
With `Cc1ccc(Oc2ccccn2)cc1-c1nccc2cc(S(=O)(=O)Nc3ccncn3)ccc12` [Example 40, 1-(2-METHYL-5-(PYRIDIN-2-YLOXY)PHENYL)-N-(PYRIMIDIN-4-YL)ISOQUINOLINE-6-SULFONAMIDE] the pIC50 (in-vitro Nav 1.7 PX data) was 5.24.
`O=S(=O)(Nc1ccncn1)c1ccc2c(-c3ccc(C(F)(F)F)cc3C3CC3)ncnc2c1` [Example 36, 4-(2-CYCLOPROPYL-4-(TRIFLUOROMETHYL)-PHENYL)-N-(PYRIMIDIN-4-YL)QUINAZOLINE-7-SULFONAMIDE] showed a pIC50 (in-vitro PX (PatchXpress) data) of 6.13.
In the case of `COc1ccc(-c2nccc3cc(S(=O)(=O)Nc4ccncn4)ccc23)c(NCC(C)(C)C)n1` [Example 70, 1-(2-((2,2-dimethylpropyl)amino)-6-methoxy-3-pyridinyl)-N-4-pyrimidinyl-6-isoquinolinesulfonamide], the pIC50 (PatchXpress (PX), in vitro) was 5.60.
In the case of `COc1cc(-c2ccc(Cl)c(F)c2)c(F)cc1-c1nccc2cc(S(=O)(=O)Nc3ccon3)ccc12` [Example 95, 1-(4′-chloro-2,3′-difluoro-5-methoxy-4-biphenylyl)-N-3-isoxazolyl-6-isoquinolinesulfonamide], the pIC50 (PatchXpress (PX), in vitro) was 7.16.
`COc1nc(Cl)c(Cl)cc1-c1nccc2cc(S(=O)(=O)Nc3nncs3)ccc12` [Example 240, 1-(5,6-dichloro-2-methoxy-3-pyridinyl)-N-1,3,4-thiadiazol-2-yl-6-isoquinolinesulfonamide] showed a pIC50 (in-vitro PX) of 5.73.
In the case of `COc1cc(-c2ccc(Cl)c(F)c2)c(Cl)cc1-c1nccc2cc(S(=O)(=O)Nc3ccon3)ccc12` [Example 101, 1-(2,4′-dichloro-3′-fluoro-5-methoxy-4-biphenylyl)-N-3-isoxazolyl-6-isoquinolinesulfonamide], the pIC50 (in-vitro PX data) was 7.13.
Molecule `COc1nc(NC2CCC(F)(F)CC2)ccc1-c1nccc2cc(S(=O)(=O)Nc3ccncn3)ccc12` [Example 74, 1-(6-((4,4-difluorocyclohexyl)amino)-2-methoxy-3-pyridinyl)-N-4-pyrimidinyl-6-isoquinolinesulfonamide] has a pIC50 (PatchXpress (PX), in vitro) of 6.09.
Work on `COc1nc(N2CCCC2)ccc1-c1nccc2cc(S(=O)(=O)Nc3ccncn3)ccc12` [Example 72, 1-(2-methoxy-6-(1-pyrrolidinyl)-3-pyridinyl)-N-4-pyrimidinyl-6-isoquinolinesulfonamide] yielded a pIC50 (PatchXpress (PX), in vitro) of 5.11.
`COc1cc(-c2cccc(C(F)(F)F)c2)c(F)cc1-c1nncc2cc(S(=O)(=O)Nc3ccon3)ccc12` [Example 3, 1-(2-FLUORO-5-METHOXY-3′-(TRIFLUOROMETHYL)-[1,1′-BIPHENYL]-4-YL)-N-(ISOXAZOL-3-YL)PHTHALAZINE-6-SULFONAMIDE] gave a pIC50 of 7.52.
With `COc1cc(C#N)c(-c2cc(F)cc(F)c2)cc1-c1nccc2cc(S(=O)(=O)Nc3ccncn3)ccc12` [Example 145, 1-(6-cyano-3′,5′-difluoro-4-methoxy-3-biphenylyl)-N-4-pyrimidinyl-6-isoquinolinesulfonamide] the pIC50 (in-vitro Nav 1.7 PX data) was 5.04.
For `COc1ccc(F)cc1-c1cc(C)c(-c2ncnc3cc(S(=O)(=O)Nc4ccon4)ccc23)cc1OC` [Example 168, 4-(5′-fluoro-2,2′-dimethoxy-5-methyl-4-biphenylyl)-N-3-isoxazolyl-7-quinazolinesulfonamide], the pIC50 (in-vitro Nav 1.7 PX data) was 5.07.
With `COc1ccc(-c2ccc(-c3nccc4cc(S(=O)(=O)Nc5nncs5)ccc34)c(OC)c2)c(F)n1` [Example 196, 1-(4-(2-fluoro-6-methoxy-3-pyridinyl)-2-methoxyphenyl)-N-1,3,4-thiadiazol-2-yl-6-isoquinolinesulfonamide] the pIC50 (in-vitro PX (PatchXpress) data) was 5.98.
Molecule `COc1cc(-c2cccc(F)c2)ccc1-c1ccnc2cc(S(=O)(=O)Nc3nncs3)ccc12` [Example 210, 4-(3′-fluoro-3-methoxy-4-biphenylyl)-N-1,3,4-thiadiazol-2-yl-7-quinolinesulfonamide] has a pIC50 (in-vitro PX) of 5.98.
`COc1cc(-c2cccc(C(F)(F)F)c2)c(C#N)cc1-c1nccc2cc(S(=O)(=O)Nc3ccon3)ccc12` [Example 148, 1-(2-cyano-5-methoxy-3′-(trifluoromethyl)-4-biphenylyl)-N-3-isoxazolyl-6-isoquinolinesulfonamide] was tested, and the pIC50 (in-vitro Nav 1.7 PX data) was 7.54.
For `COc1nc(N(CC(C)C)CC(C)C)ccc1-c1nccc2cc(S(=O)(=O)Nc3ccncn3)ccc12` [Example 46, 1-(6-(DIISOBUTYLAMINO)-2-METHOXYPYRIDIN-3-YL)-N-(PYRIMIDIN-4-YL)ISOQUINOLINE-6-SULFONAMIDE], the pIC50 (PatchXpress (PX), in vitro) was 4.87.
In the case of `COc1cc(-c2ccc(C)c(Cl)c2)c(Cl)cc1-c1nccc2cc(S(=O)(=O)Nc3ccon3)ccc12` [Example 96, 1-(2,3′-dichloro-5-methoxy-4′-methyl-4-biphenylyl)-N-3-isoxazolyl-6-isoquinolinesulfonamide], the pIC50 (PatchXpress (PX), in vitro) was 7.13.
With `COc1cc(-c2cc(F)cnc2OC)c(F)cc1-c1nccc2cc(S(=O)(=O)Nc3ncccn3)ccc12` [Example 92, 1-(5-fluoro-4-(5-fluoro-2-methoxy-3-pyridinyl)-2-methoxyphenyl)-N-2-pyrimidinyl-6-isoquinolinesulfonamide] the pIC50 (PatchXpress (PX), in vitro) was 6.56.
Molecule `COc1cc(-c2ccc(F)c(C)c2)c(Cl)cc1-c1nccc2cc(S(=O)(=O)Nc3ccon3)ccc12` [Example 94, 1-(2-chloro-4′-fluoro-5-methoxy-3′-methyl-4-biphenylyl)-N-3-isoxazolyl-6-isoquinolinesulfonamide] has a pIC50 (PatchXpress (PX), in vitro) of 7.30.
`COc1cc(Oc2cc(F)cc(F)c2)ccc1-c1nccc2cc(S(=O)(=O)Nc3ccncn3)ccc12` [Example 178, 1-(4-(3,5-difluorophenoxy)-2-methoxyphenyl)-N-4-pyrimidinyl-6-isoquinolinesulfonamide] showed a pIC50 (in-vitro PX (PatchXpress) data) of 4.73.
In the case of `COc1cc(-c2ccc(F)c(C)c2)c(Cl)cc1-c1ncnc2cc(S(=O)(=O)Nc3ccon3)ccc12` [Example 213, 4-(2-chloro-4′-fluoro-5-methoxy-3′-methyl-4-biphenylyl)-N-3-isoxazolyl-7-quinazolinesulfonamide], the pIC50 (in-vitro PX) was 7.42.
`COc1cc(-c2ccc(Cl)c(C)c2)c(F)cc1-c1ncnc2cc(S(=O)(=O)Nc3ccon3)ccc12` [Example 103, 4-(4′-chloro-2-fluoro-5-methoxy-3′-methyl-4-biphenylyl)-N-3-isoxazolyl-7-quinazolinesulfonamide] showed a pIC50 (in-vitro PX data) of 7.62.
For `COc1nc(OCC(C)(C)C)ccc1-c1nccc2cc(S(=O)(=O)Nc3ccncn3)ccc12` [Example 67, 1-(6-(2,2-dimethylpropoxy)-2-methoxy-3-pyridinyl)-N-4-pyrimidinyl-6-isoquinolinesulfonamide], the pIC50 (PatchXpress (PX), in vitro) was 6.00.
In the case of `COc1nc(N2CCC(F)(F)CC2)ccc1-c1nccc2cc(S(=O)(=O)Nc3ccncn3)ccc12` [Example 71, 1-(6-(4,4-difluoro-1-piperidinyl)-2-methoxy-3-pyridinyl)-N-4-pyrimidinyl-6-isoquinolinesulfonamide], the pIC50 (PatchXpress (PX), in vitro) was 6.08.
Work on `COc1cc(-c2cc(F)cc(F)c2)ccc1-c1nccc2cc(S(=O)(=O)Nc3nnc(C)s3)ccc12` [Example 133, 1-(3′,5′-difluoro-3-methoxy-4-biphenylyl)-N-(5-methyl-1,3,4-thiadiazol-2-yl)-6-isoquinolinesulfonamide] yielded a pIC50 (in-vitro PX data) of 5.81.
`COc1cc(C#N)c(-c2cc(F)cc(F)c2)cc1-c1nccc2cc(S(=O)(=O)Nc3nncs3)ccc12` [Example 150, 1-(6-cyano-3′,5′-difluoro-4-methoxy-3-biphenylyl)-N-1,3,4-thiadiazol-2-yl-6-isoquinolinesulfonamide] showed a pIC50 (in-vitro Nav 1.7 PX data) of 5.22.
`COc1nnc(NS(=O)(=O)c2ccc3c(-c4ccc(-c5cc(F)cc(F)c5)cc4OC)nccc3c2)s1` [Example 8, 1-(3′,5′-DIFLUORO-3-METHOXY-[1,1′-BIPHENYL]-4-YL)-N-(5-METHOXY-1,3,4-THIADIAZOL-2-YL)ISOQUINOLINE-6-SULFONAMIDE] was tested, and the pIC50 was 5.48.
